The record followed here is ChEMBL document CHEMBL4261639, “Cell-Active Small Molecule Inhibitors of the DNA-Damage Repair Enzyme Poly(ADP-ribose) Glycohydrolase (PARG): Discovery and Optimization of Orally Bioavailable Quinazolinedione Sulfonamides” (J Med Chem, 2018).

What is called pEC50 is the negative decadic logarithm of the EC50, by convention in mol/L. A high value points to a small EC50.

pEC50: −log10 of the molar value.

Poly(ADP-ribose) glycohydrolase, sequence (Q86W56 whole entry): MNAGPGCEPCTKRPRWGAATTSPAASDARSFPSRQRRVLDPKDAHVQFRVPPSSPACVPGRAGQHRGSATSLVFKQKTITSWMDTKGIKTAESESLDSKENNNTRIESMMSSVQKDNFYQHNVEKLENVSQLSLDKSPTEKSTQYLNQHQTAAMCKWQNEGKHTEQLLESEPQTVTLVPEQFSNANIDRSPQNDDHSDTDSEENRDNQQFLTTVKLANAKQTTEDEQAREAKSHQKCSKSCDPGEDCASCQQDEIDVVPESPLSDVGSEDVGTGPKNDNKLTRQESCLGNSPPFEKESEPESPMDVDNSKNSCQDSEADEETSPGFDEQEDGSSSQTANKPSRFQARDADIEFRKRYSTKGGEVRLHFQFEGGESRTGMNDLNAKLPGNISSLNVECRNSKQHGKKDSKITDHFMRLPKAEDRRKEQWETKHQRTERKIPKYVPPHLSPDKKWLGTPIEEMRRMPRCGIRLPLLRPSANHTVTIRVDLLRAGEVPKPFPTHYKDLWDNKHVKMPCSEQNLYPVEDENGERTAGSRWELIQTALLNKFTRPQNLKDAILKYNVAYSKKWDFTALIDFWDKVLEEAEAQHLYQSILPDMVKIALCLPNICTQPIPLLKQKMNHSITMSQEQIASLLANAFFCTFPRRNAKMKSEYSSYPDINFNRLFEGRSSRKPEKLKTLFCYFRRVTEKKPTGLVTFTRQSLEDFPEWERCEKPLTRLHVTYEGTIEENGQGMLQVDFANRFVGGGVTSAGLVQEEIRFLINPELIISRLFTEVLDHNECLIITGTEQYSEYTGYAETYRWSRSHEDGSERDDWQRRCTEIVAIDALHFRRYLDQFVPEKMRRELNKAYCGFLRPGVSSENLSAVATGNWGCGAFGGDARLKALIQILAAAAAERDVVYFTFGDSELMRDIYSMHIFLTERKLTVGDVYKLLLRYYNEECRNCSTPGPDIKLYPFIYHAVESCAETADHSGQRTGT

The test concerns the target Poly(ADP-ribose) glycohydrolase (Homo sapiens, UniProt Q86W56). Description: Inhibition of human full length PARG using Bt-NAD ribosylated PARP1 substrate after 10 mins by TR-FRET assay.
Turning to `O=c1[nH]c2ccc(S(=O)(=O)NC3CC3)cc2c2ccccc12`, the negative logarithm of the EC50 (pEC50) was 4.30.

`CCNS(=O)(=O)c1ccc2c(c1)c(=O)n(CC)c(=O)n2CC`: the negative logarithm of the EC50 (pEC50) is 3.85.

The compound `Cn1c(=O)n(Cc2nccs2)c(=O)c2cc(S(=O)(=O)NC3(C)CC3)ccc21` showed a negative logarithm of the EC50 (pEC50) of 4.89. Compared with the last compound, the pEC50 is 1.04 log units higher.

On to `Cn1nnnc1Cn1c(=O)c2cc(S(=O)(=O)NC3(C)CC3)ccc2n(C)c1=O`, for which the negative-log EC50 (pEC50) is 5.52. This pEC50 lies 0.63 log units higher than the previous one.

In the case of `Cn1cncc1Cn1c(=O)c2cc(S(=O)(=O)NC3(C)CC3)ccc2n(C)c1=O`, the pEC50 is 5.48.

Take `Cn1c(=O)c2cc(S(=O)(=O)NC3(C)CC3)ccc2n(Cc2ccc(F)cc2)c1=O`: the pEC50 is 6.28.

Turning to `Cn1c(=O)n(CC2CCCCC2)c(=O)c2cc(S(=O)(=O)NC3(C)CC3)ccc21`, the pEC50 is < 3.82.

For `Cn1c(=O)n(Cc2cnc[nH]2)c(=O)c2cc(S(=O)(=O)NC3(C)CC3)ccc21`, the pEC50 is 5.40.

In turn, `Cn1c(=O)c2cc(S(=O)(=O)NC3(C)CC3)ccc2n(Cc2cccnc2)c1=O` had a pEC50 of 5.89.

Take `Cn1c(=O)n(Cc2ccccn2)c(=O)c2cc(S(=O)(=O)NC3(C)CC3)ccc21`: the pEC50 was 4.80.

Compound `CCn1cc(Cn2c(=O)c3cc(S(=O)(=O)NC4(C)CC4)ccc3n(C)c2=O)cn1` showed a pEC50 of 6.35.

`O=C1c2ccccc2C(=O)c2cc(S(=O)(=O)NCC3CC3)ccc21`: the pEC50 is 4.62.

On to `NC(=O)CCNS(=O)(=O)c1ccc2c(c1)C(=O)c1ccccc1C2=O`, for which the negative-log EC50 (pEC50) was < 3.82.

The compound `Cc1nnc(Cn2c(=O)c3cc(S(=O)(=O)NC4(C)CC4)ccc3n(C)c2=O)s1` had a pEC50 of 6.33.

On to `Cn1c(=O)n(Cc2csnn2)c(=O)c2cc(S(=O)(=O)NC3(C)CC3)ccc21`, for which the pEC50 was 5.57.

`Cn1c(=O)c2cc(S(=O)(=O)NC(C)(C)C)ccc2n(C)c1=O` had a negative-log EC50 (pEC50) of 3.96.

The compound `C#CCn1c(=O)c2cc(S(=O)(=O)NC3(C)CC3)ccc2n(C)c1=O` gave a negative-log EC50 (pEC50) of 5.52.

On to `CNS(=O)(=O)c1ccc2c(c1)C(=O)c1ccccc1C2=O`, for which the negative-log EC50 (pEC50) is < 4.52.

`Cn1c(=O)n(Cc2ccns2)c(=O)c2cc(S(=O)(=O)NC3(C)CC3)ccc21`: the negative-log EC50 (pEC50) is 5.64.

In turn, `Cc1cc(Cn2c(=O)c3cc(S(=O)(=O)NC4(C)CC4)ccc3n(C)c2=O)[nH]n1` showed a pEC50 of 5.49.

Turning to `Cn1c(=O)n(Cc2cncs2)c(=O)c2cc(S(=O)(=O)NC3(C)CC3)ccc21`, the pEC50 is 5.92. Against the preceding compound, the pEC50 is 0.43 log units higher.

In the case of `Cn1c(=O)c2cc(S(=O)(=O)NC3(C)CC3)ccc2n(Cc2ccccc2F)c1=O`, the pEC50 is 5.85.

The compound `Cn1nccc1Cn1c(=O)n(C)c(=O)c2cc(S(=O)(=O)NC3(C)CC3)ccc21` gave a negative logarithm of the EC50 (pEC50) of 5.92.

Compound `Cn1cnnc1Cn1c(=O)c2cc(S(=O)(=O)NC3(C)CC3)ccc2n(C)c1=O` gave a negative-log EC50 (pEC50) of 5.51.

The compound `Cn1c(=O)n(Cc2ccsc2)c(=O)c2cc(S(=O)(=O)NC3(C)CC3)ccc21` showed a negative logarithm of the EC50 (pEC50) of 4.70.

For the compound `COc1ccc(Cn2c(=O)n(C)c(=O)c3cc(S(=O)(=O)NC4(C)CC4)ccc32)cc1`, the pEC50 is 6.35.

In the case of `Cn1c(=O)n(CC(=O)c2ccccc2)c(=O)c2cc(S(=O)(=O)NC3(C)CC3)ccc21`, the negative-log EC50 (pEC50) was 5.80.

`Cn1c(=O)n(CC2COC2)c(=O)c2cc(S(=O)(=O)NC3(C)CC3)ccc21`: the negative logarithm of the EC50 (pEC50) was 5.15.

Regarding `Cc1nc(C)c(Cn2c(=O)c3cc(S(=O)(=O)NC4(C)CC4)ccc3n(C)c2=O)s1`, the negative-log EC50 (pEC50) is 6.04.

Regarding `COCCNS(=O)(=O)c1ccc2c(c1)C(=O)c1ccccc1C2=O`, the negative logarithm of the EC50 (pEC50) was < 3.82.

Take `Cn1c(=O)n(Cc2cocn2)c(=O)c2cc(S(=O)(=O)NC3(C)CC3)ccc21`: the pEC50 was 4.68.

Compound `Cc1nc(C)c(Cn2c(=O)n(C)c(=O)c3cc(S(=O)(=O)NC4(C)CC4)ccc32)s1` showed a pEC50 of 6.74.

Regarding `COc1ccccc1Cn1c(=O)n(C)c(=O)c2cc(S(=O)(=O)NC3(C)CC3)ccc21`, the pEC50 is 5.49.

`Cn1c(=O)n(CC2CC2)c(=O)c2cc(S(=O)(=O)NC3(C)CC3)ccc21` showed a pEC50 of 5.34.

The compound `Cn1c(=O)c2cc(S(=O)(=O)NC3(C)CC3)ccc2n(Cc2ccncc2)c1=O` gave a negative logarithm of the EC50 (pEC50) of 5.62.

In the case of `Cn1c(=O)n(Cc2ccccc2)c(=O)c2cc(S(=O)(=O)NC3(C)CC3)ccc21`, the pEC50 was 4.59.

As to `Cn1c(=O)n(Cc2cccnc2)c(=O)c2cc(S(=O)(=O)NC3(C)CC3)ccc21`, the negative-log EC50 (pEC50) was 5.60.

With `Cn1c(=O)n(Cc2cn[nH]c2)c(=O)c2cc(S(=O)(=O)NC3(C)CC3)ccc21`, the pEC50 is 6.42.

Turning to `N#CCCNS(=O)(=O)c1ccc2c(c1)C(=O)c1ccccc1C2=O`, the pEC50 was 4.06.

As for `CCNS(=O)(=O)c1ccc2c(c1)C(=O)c1ccccc1C2=O`, the pEC50 is 3.96. This pEC50 and that of the compound before are within 0.2 log units of each other.

As to `NC(=O)CNS(=O)(=O)c1ccc2c(c1)C(=O)c1ccccc1C2=O`, the pEC50 was < 3.82.

On to `Cn1c(=O)n(CC#N)c(=O)c2cc(S(=O)(=O)NC3(C)CC3)ccc21`, for which the negative-log EC50 (pEC50) is 5.96.

`O=C1c2ccccc2C(=O)c2cc(S(=O)(=O)NCCO)ccc21`: the negative logarithm of the EC50 (pEC50) is < 3.82.

The compound `Cc1nc(-c2ccccc2)c(Cn2c(=O)c3cc(S(=O)(=O)NC4(C)CC4)ccc3n(C)c2=O)s1` gave a pEC50 of 4.92.

In turn, `Cn1c(=O)c2cc(S(=O)(=O)NC3CC3)ccc2n(C)c1=O` gave a negative logarithm of the EC50 (pEC50) of 4.96. This pEC50 and that of the compound before are within 0.2 log units of each other.

For `Cn1nccc1Cn1c(=O)c2cc(S(=O)(=O)NC3(C)CC3)ccc2n(C)c1=O`, the negative logarithm of the EC50 (pEC50) is 5.39.

`Cn1c(=O)c2cc(S(=O)(=O)NC3(C)CC3)ccc2n(Cc2cccc(F)c2)c1=O` showed a pEC50 of 5.80.

The compound `Cn1c(=O)n(-c2ccccc2)c(=O)c2cc(S(=O)(=O)NC3(C)CC3)ccc21` gave a pEC50 of 4.64. This pEC50 lies 1.16 log units lower than the previous one.

As to `Cn1c(=O)n(Cc2ccoc2)c(=O)c2cc(S(=O)(=O)NC3(C)CC3)ccc21`, the pEC50 is 5.22.

The compound `Cc1nc(Cn2c(=O)c3cc(S(=O)(=O)NC4(C)CC4)ccc3n(C)c2=O)cs1` had a negative-log EC50 (pEC50) of 5.00.

Consider `Cn1c(=O)c2cc(S(=O)(=O)NC3(C)CC3)ccc2n(Cc2ccccn2)c1=O`, for which the negative logarithm of the EC50 (pEC50) is 5.24. Against the preceding compound, the pEC50 is 0.24 log units higher.

Compound `Cc1nnsc1Cn1c(=O)c2cc(S(=O)(=O)NC3(C)CC3)ccc2n(C)c1=O` gave a pEC50 of 6.06.

As to `CCNS(=O)(=O)c1ccc2c(c1)c(=O)n(C)c(=O)n2C`, the pEC50 is < 3.82.

The compound `Cn1c(=O)n(Cc2cnc(N)s2)c(=O)c2cc(S(=O)(=O)NC3(C)CC3)ccc21` showed a negative-log EC50 (pEC50) of 6.32.

In the case of `Cc1ncc(Cn2c(=O)c3cc(S(=O)(=O)NC4(C)CC4)ccc3n(C)c2=O)s1`, the negative logarithm of the EC50 (pEC50) was 6.32.

As for `O=C1c2ccccc2C(=O)c2cc(S(=O)(=O)NC3CCC3)ccc21`, the pEC50 was < 4.30.

The compound `Cc1cc(Cn2c(=O)n(C)c(=O)c3cc(S(=O)(=O)NC4(C)CC4)ccc32)n(C)n1` had a negative-log EC50 (pEC50) of 6.42.

For `COc1cccc(Cn2c(=O)n(C)c(=O)c3cc(S(=O)(=O)NC4(C)CC4)ccc32)c1`, the pEC50 is 6.07.

Compound `Cn1c(=O)n(CC(=O)c2ccncc2)c(=O)c2cc(S(=O)(=O)NC3(C)CC3)ccc21` had a pEC50 of 5.77.

As for `CCn1c(=O)c2cc(S(=O)(=O)NC3(C)CC3)ccc2n(C)c1=O`, the negative logarithm of the EC50 (pEC50) was 5.40.

The compound `Cn1ccc(Cn2c(=O)c3cc(S(=O)(=O)NC4(C)CC4)ccc3n(C)c2=O)n1` showed a negative logarithm of the EC50 (pEC50) of 4.92.

`COCC(C)(C)NS(=O)(=O)c1ccc2c(c1)C(=O)c1ccccc1C2=O`: the negative-log EC50 (pEC50) was < 3.82.

On to `Cn1c(=O)n(Cc2ccncc2)c(=O)c2cc(S(=O)(=O)NC3(C)CC3)ccc21`, for which the pEC50 is 5.10.

With `CCC(C)(C)NS(=O)(=O)c1ccc2c(c1)C(=O)c1ccccc1C2=O`, the negative-log EC50 (pEC50) was 4.31.
